Entries after “also recorded” stand apart in the source; their conditions may differ.
Assays:
SLAMF 1 = assay: Palmitic acid treatment of human hepatocytes in culture, SLAMF1 protein by western blot and immunofluorescence; assay type: cell-based; details: for SLAMF1 level normalized to Tubulin, relative to control: western blot, n=3; for SLAMF 1 protein levels by immunofluorescence staining: palmitic acid vs vehicle
Experimental: Hepatocytes were treated with two different doses of palmitic acid (0.4 and 0.8 mM). […] The 0.4 mM dose has a SLAMF1 level of 2.3 times the control level. The 0.8 mM dose has a SLAMF1 level of 5.8 times the control level. […] Representative immunofluorescence staining of hepatocytes treated with vehicle (left panel) or palmitic acid (right panel). Caveolin antibody (red, to label the membrane of the cells), SLAMF 1 antibody (green) and the nuclear marker DAPI (blue). Protein levels of SLAMF 1 are elevated in response to palmitic acid (right panel). The data represents n=4 samples per group. All samples were a courtesy of Pathology Department. All pictures were acquired on a Leica TCS SP5 Spectral Confocal Microscope equipped with a ×40 (oil) objective.

HepG2 cells = assay: Palmitic acid lipotoxicity in HepG2 cells (MTT, lactate dehydrogenase, AnV cytometry, cleaved caspase 3 p17 western blot); assay type: cell-based, human; details: PA 24 h
SLAMF1 = SLAMF1 expression in PA treated HepG2 cells (immunocytochemistry, Western blot, q-PCR, conditioned medium); assay type: cell-based, human; details: for SLAMF1 mRNA (q-PCR) / SLAMF1 protein (immunocytochemistry, Western blot): HepG2 cells, PA 24 h
Source text: FIGS. 7A-7C show SLAMF1 increases in PA treated HepG2 cells.
Non-alcoholic fatty liver disease (NAFLD) is one of the most common forms of chronic liver disease. NAFLD's initial phase involves hepatic steatosis (triglyceride accumulation in hepatocytes). NAFLD can rapidly progress to non-alcoholic steatohepatitis (NASH). NASH is characterized by increased oxidative stress, lipid peroxidation, inflammation, mitochondria dysfunction, and hepatocyte death and fibrosis. If untreated, NASH leads to cirrhosis, and in some cases, hepatocellular carcinoma. […] Therefore, it is critical to understand the mechanisms responsible for NAFLD progression to NASH to develop efficient therapies and find disease progression biomarkers. Signaling lymphocytic activation molecule 1 (SLAMF1) protein is a self-ligand receptor involved in regulating the immune response to viruses and cancer. In the present disclosure, the inventors discovered that hepatocytes from NASH liver samples from humans and mice express high levels of SLAMF1. To confirm these findings, the inventors used palmitic acid-treated HepG2 hepatocytes as an “in vitro” model of NASH. […] Based on the inventors' experimental results, SLAMF1 may be used as both a therapeutic and a diagnostic target (including soluble form) for NAFLD and NASH.
Referring to FIGS. 6A-8E, the involvement of SLAMF1 in the progression of NASH was explored in human hepatocarcinoma cells HepG2.

CCCCCCCCCCCCCCCC(=O)O [palmitic acid]
SLAMF1 level normalized to Tubulin, relative to control (SLAMF 1; 0.4 mM palmitic acid): 2.3 times the control level | SLAMF1 level normalized to Tubulin, relative to control (SLAMF 1; 0.8 mM palmitic acid): 5.8 times the control level | SLAMF 1 protein levels (SLAMF 1; 0.4 and 0.8 mM palmitic acid): dose dependent increase | SLAMF 1 protein levels by immunofluorescence staining (SLAMF 1; n=4): significant increase in SLAMF1 levels | SLAMF 1 protein levels by immunofluorescence staining (SLAMF 1; n=4, listed as Palmitic acid): elevated | apoptosis (AnV by cytometry, cleaved caspase 3 p17 by western blot) (HepG2 cells): induced apoptosis | cell viability (MTT) (HepG2 cells): reduces cell viability | cytotoxicity (Lactate dehydrogenase activity in conditioned medium) (HepG2 cells): increases cytotoxicity | SLAMF1 mRNA (q-PCR) (SLAMF1): significant increases | SLAMF1 protein (immunocytochemistry, Western blot) (SLAMF1): significant increases | SLAMF1 mRNA (q-PCR) (SLAMF1; listed as PA): increases | SLAMF1 protein (immunocytochemistry, Western blot) (SLAMF1; listed as PA): increases SLAMF1 protein | SLAMF1 in culture/conditioned medium (SLAMF1; palmitic acid-treated hepatocytes): secrete SLAMF1 in the culture medium; also recorded: increases SLAMF1 both in cells and conditioned medium

Reference: patent US20240077498A1, “METHOD OF DIAGNOSING AND TREATING NONALCOHOLIC FATTY LIVER DISEASE AND NONALCOHOLIC STEATOHEPATITIS” (Board of Supervisors of Louisiana State University and …, priority 2020, published 2024)
